Measured values as given in PubChem BioAssay (NCI).
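Assay format: 96-well plates, 48-hour exposure. GI50 is the concentration that inhibits growth by half. TGI denotes the concentration required for complete inhibition of growth.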

Columns and labels:
Assay in all cases: growth of human tumour cells (NCI), 48 h
[1] = tested on: 786-0 renal
[2] = tested on: DU-145 prostate
[3] = tested on: HCT-15 colon
[4] = tested on: HS 578T breast
[5] = tested on: KM12 colon
[6] = tested on: LOX IMVI melanoma

Compound	TGI [1] [µM]	TGI [2] [µM]	TGI [3] [µM]	TGI [4] [µM]	TGI [5] [µM]	TGI [6] [µM]	GI50 [2] [µM]
O=C(Cc1ccccc1)NNc1nc(NNC(=O)c2ccncc2)nc(Nc2ccccc2)n1	> 10	> 10	> 10	> 10	> 10	> 10	
Cn1c(=O)c2c(nc(N)n2C2OC(CO)C(O)C2O)n(C)c1=O (centres undefined)	> 100	> 100	> 100	> 100	> 100	> 100	
O=C(/C=C\c1ccccc1)Oc1ccc(/C=C2\CCCCC2=O)cc1	> 100	> 100	79.7	> 100	> 100	> 100	
O=C(Nc1nnc(-c2c(Cl)c(Cl)c(Cl)c(Cl)c2-c2nc3cc(C(=O)c4ccccc4)ccc3[nH]2)o1)c1ccccc1	30.5	47.8	36.7		> 100	32	
CCN(CC)CCOC(=O)CCN1CC2CCC(CC2)C1	> 100	> 100	> 100	> 100	> 100	> 100	
Nc1ccc(Nc2c3ccccc3nc3ccccc23)cc1	> 10	> 10	> 10	> 10	> 10	2.35	
C/C1=C\[C@H](C)C[C@H](C)OC(=O)C[C@H](c2ccc(O)cc2)NC(=O)[C@H](Cc2ccc(O)c(Br)c2)N(C)C(=O)[C@H](C)NC(=O)[C@@H](C)C1	> 25	> 25	> 25	> 25	> 25	> 25	
COC(=O)[C@]12CCC(C)(C)C[C@H]1C1=CC[C@@H]3[C@@]4(C)CC[C@H](OC5OC(CO)C(O)C(O)C5OC5OC(CO)C(O)C(O)C5O)C(C)(C)[C@@H]4CC[C@@]3(C)[C@]1(C)CC2 (some centres undefined)	23.8	24.5	25	56.8	26.9	20.2	
COc1cc2nc(-c3ccccc3F)[nH]c(=O)c2cc1OC	> 100	> 100	> 100	> 100	> 100	> 100	
COc1ccc(OC)c(C#Cc2ccc(OC)c(C(=O)NCCc3ccc(F)cc3)c2)c1	> 100	> 100	> 100	> 100	> 100	> 100	> 100
CO[C@@H]1C=C[C@@]23c4cc5c(cc4C(O)N(CC2O)C3C1)OCO5 (some centres undefined)	22.6	50.7	39.3	> 100	17	48.5	
Cc1cc(N(CCCCl)CCCCl)ccc1C=Nc1cccc(Cl)c1	43.2	27.9	30.2	36.2	26.3	26.7	
O=C1Nc2cc([N+](=O)[O-])ccc2C(=O)N2CCC[C@@H]12	> 100	> 100	> 100	> 100	> 100	> 100	
Cc1c2cccc-2ccc2c1[nH]c1ccc(Br)cc12	27.5	22.9	14	94.3	7.08	15	
COc1ccc(C2CC(=O)CC(c3ccc(OC)cc3)C23C(=O)NC(=S)NC3=O)cc1 (centres undefined)	> 100	> 100	> 100		> 100	> 100	
COc1ccc2c(c1)CCCN1Cc3cc(OC)c(OC)cc3CC21 (centres undefined)	> 100	> 100	> 100	> 100	> 100	> 100	
O=C1Oc2ccccc2C(=O)/C1=C/N1C(=O)N/C(=C\c2cccc(O)c2)C1=O	> 100	> 100	> 100		> 100	> 100	
O=C(O)Cc1cccc2c1OC(c1ccccc1)C(C(=O)c1ccccc1)C2=O (centres undefined)	> 100	> 100	> 100	> 100	> 100	> 100	
CC(C)(C)CC(C)(C)N=C(N)NO	> 100	> 100	> 100	> 100	> 100	> 100	
COc1ccc(C2CC(c3ccc4ccccc4c3O)=NN2C(C)=O)cc1OC (centres undefined)	> 100	> 100	> 100	> 100	> 100		
CN(C)CCCNc1ccnc2cc([N+](=O)[O-])ccc12	28.8	72.2	26.7	40.4	26.4	24.6	
CCOC(=O)CCC(C(=O)OCC)n1nnc2ccc(Nc3c(C)[n+]([O-])c4cc(Cl)ccc4[n+]3[O-])cc21 (centres undefined)	> 100	> 100	58.2	> 100	86.7	35.7	
CCOC(CI)O[C@@H]1C=C[C@H](OC(C)=O)C1 (some centres undefined)	> 100	> 100	> 100		> 100		
COCOCC1CCCN1CN1CCC[C@H]1COCOC (some centres undefined)	> 100	> 100	> 100	> 100	> 100		
COc1ccc(C2=Nn3c(nc4sc(-c5ccccc5)cc4c3=O)SC2)cc1	> 100	> 100	> 100	> 100	> 100	> 100	
O=C(NCCNCCNCCNC(=O)c1cc(-c2ccccc2)nc2ccccc12)c1cc(-c2ccccc2)nc2ccccc12	3.08	11.8	18.9	4.96	5.54	3.03	
NC1=CN(Cc2ccccc2)C2=N/C(=C\c3ccccc3)C(=O)N12	> 100	> 100	> 100	> 100	> 100	> 100	
CCN(CC)CCn1c2cc3c(cc2c(=O)c2cccnc21)OCO3	> 10	> 10	> 10	> 10	> 10	> 10	
Cc1cc(S(=O)(=O)NC2=NC(c3ccccc3)c3ccccc3N2)c(S)cc1Cl (centres undefined)	> 100	> 100	> 100	> 100	> 100	> 100	
COc1ccc2oc(=O)c3c(c2c1C)OC(C)(C)C=C3	> 100	> 100	> 100	> 100	> 100	> 100	
